Assay results published in patent US20070275911A1, “Targeted Drug-Formaldehyde Conjugates and Methods of Making and Using the Same” (priority 2003, published 2007).
Converted amounts (≈) assume the structure as drawn. Like-named read-outs stand apart in the source and are kept apart here. Residues, ends and D or L forms follow the SMILES beside them. *: point of attachment. X1 = NOCC(=O)NCCOCCN*

Tests used:
[1] = target: T1, ανβ3 integrin present on viable MDA-MB-435 cells (Homo sapiens, UniProt P05106+P06756); assay: Vitronectin cell adhesion (competition) assay; assay type: cell-based
T1 construct: endogenous in cells
From the text: The data are presented as the mean fluorescence for each condition with the background, drug-free cell fluorescence subtracted.

[2] = test system: Staphylococcus aureus Mu 50 (VISA); conditions: for MIC: Mu 50 VISA
[3] = test system: Staphylococcus aureus 8325 (susceptible); assay: microbe, parasite or virus in culture
[4] = test system: Staphylococcus aureus IL-F (VISA)
[5] = test system: Staphylococcus aureus IL-A (Hetero VISA)
[6] = test system: Staphylococcus aureus Mu 3 (Hetero VISA)
[7] = test system: Staphylococcus aureus 8325 (susceptible); conditions: for MIC: 8325 susceptible
[8] = cell line not stated; cited from earlier work
[9] = test system: Staphylococcus aureus IL-F (VISA); assay: microbe, parasite or virus in culture
[10] = test system: Staphylococcus aureus Mu 50 (VISA); assay: microbe, parasite or virus in culture
[11] = test system: Staphylococcus aureus IL-A (Hetero VISA); assay: microbe, parasite or virus in culture
[12] = test system: Staphylococcus aureus Mu 3 (Hetero VISA); assay: microbe, parasite or virus in culture
MCF-7 cells = assay: Breast cancer cell growth inhibition, 4 h treatment; conditions: MCF-7 (ER/AEBS/MDR +/+/−), 4 h treatment
Procedure: (§1) Breast cancer cell growth inhibition: The ER-targeted DOX-formaldehyde conjugates, 11a-c, were evaluated against four breast cancer cell lines that differ in terms of estrogen receptor and multidrug resistance expression. MCF-7 cells are human breast adenocarcinoma cells that express estrogen receptor at a level of 195,000 sites/cell. MCF-7/Adr cells are an ER-negative, doxorubicin-resistant variant of the parent MCF-7 that express the multidrug resistance (MDR) phenotype. MDA-MB-231 and MDA-MB-435 are ER-negative human breast adenocarcinoma and ductal carcinoma cells, respectively. All cytotoxins were formulated as 100× solutions in DMSO/1% AcOH and delivered to cells as 1% DMSO (0.01% AcOH) in cell culture medium. In all experiments cell treatment lasted 4 h.
(§2) In Vitro cellular growth inhibition experiments: The IC50 for the targeted formaldehyde conjugates and all control compounds were performed as previously described with minor modifications. All compounds were solubilized in dimethylsulfoxide containing 1% v/v acetic acid. The concentrations of all 100× DMSO/1% AcOH drug solutions was determined spectrophotometrically by absorbance at 480 nm (ε=[…]). […] For every experiment each drug level and controls were performed in hexuplicate; each experiment was performed in at least duplicate. Error bars represent one standard deviation about the mean for the six wells per lane measured for each drug concentration.

MCF-7/Adr cells = assay: as above; conditions: MCF-7/Adr (−/+/+), 4 h treatment
Procedure: as §1, §2

MDA-MB-231 = assay: as above; conditions: MDA-MB-231 (−/+/−), 4 h treatment
Procedure: as §1, §2

MDA-MB-435 = assay: as above; conditions: MDA-MB-435 (−/+/−), 4 h treatment
Procedure: as §1, §2

[13] = cited from earlier work; for tolerance by mice: doxoform: doses as low as 1 mg/kg, epidoxoform: up to 150% of MTD of doxorubicin
MCF-7 = conditions: sensitive MCF-7; cited from earlier work
MCF-7/ADR = conditions: resistant MCF-7/ADR; cited from earlier work
[14] = buffer, pH 7.4; cited from earlier work
[15] = test system: MDA-MB-23 1, and BT-20 human breast cancer cells; conditions: cited from earlier work
[16] = test system: human breast cancer xenografts; conditions: same time period (10 days); cited from earlier work
3T3 mouse fibroblasts = conditions: cited from earlier work
P. aeruginosa ATCC 27853 = conditions: cited from earlier work
S. aureus ATCC 25723 = conditions: cited from earlier work
E. coli ATCC 25922 = conditions: cited from earlier work
Human erythrocytes = conditions: cited from earlier work
[17] = Water solubility and storage stability of RGD constructs

Q: Which IC50 [1] does the source give for N=C(N)NCCC[C@H](NC(=O)[C@H](CS)NC(=O)[C@H](CC(=O)O)NC(=O)[C@@H](N)CS)C(=O)NCC(=O)N[C@@H](CC(=O)O)C(=O)N[C@@H](CS)C(=O)N[C@@H](Cc1ccccc1)C(=O)N[C@@H](CS)C(=O)NCCOCCNC(=O)CON [Acyclic-RGD-4C-tether 3] (H-CDCRGDCFC-X1) here?
A: Its IC50 is 0.001 µM.

Q: With O=C(O)c1cn(C2CC2)c2cc(N3CCNCC3)c(F)cc2c1=O [Ciprofloxacin, ciprofloxacin] as the compound, how does the antibiotic activity ([2]; VISA and hetero VISA strains) read?
A: The antibiotic activity was “inactive”.

Q: And the MIC ([3]; 24 h)?
A: The MIC was 6 µM (≈ 1.99 µg/mL).

Q: And the MIC ([3]; 48 h)?
A: Its MIC is 12 µM (≈ 3.98 µg/mL).

Q: For O=C(NCN1CCN(c2cc3c(cc2F)c(=O)c(C(=O)O)cn3C2CC2)CC1)c1ccccc1O [Ciprosaliform, N-(2-Hydroxybenzamido-methyl)-ciprofloxacin], which MIC ([2]; 24 hr) is on record?
A: Its MIC is 4 µM (≈ 1.92 µg/mL).

Q: What about the MIC ([2]; 48 hr) of the same compound?
A: The MIC was 8 µM (≈ 3.84 µg/mL).

Q: And the MIC ([4]; 24 hr)?
A: Its MIC is 8/8 μM.

Q: And the MIC ([4]; 48 hr)?
A: The MIC was 8/8 μM.

Q: And the MIC ([5]; 24 hr)?
A: The MIC was 8/8 μM.

Q: What about the MIC ([5]; 48 hr) of the same compound?
A: Its MIC is 8/8 μM.

Q: And the MIC ([6]; 24 hr)?
A: The MIC was 4 µM (≈ 1.92 µg/mL).

Q: And the MIC ([6]; 48 hr)?
A: The MIC was 8 µM (≈ 3.84 µg/mL).

Q: What about the MIC ([7]; 24 hr) of the same compound?
A: Its MIC is 1/1 μM.

Q: What about the MIC ([7]; 48 hr) of the same compound?
A: Its MIC is 1/1 μM.

Q: What about the “fold more active than ciprofloxacin” value ([7]; susceptible strain) of the same compound?
A: Its value is 6 fold.

Q: For C#Cc1cccc(Nc2ncnc3cc(OCCOC)c(OCCOC)cc23)c1 [Tarceva, reference compound], which IC50 [8] is on record?
A: Its IC50 is 0.05 µM.

Q: Which results are given for CN[C@H](CC(C)C)C(=O)N[C@H]1C(=O)N[C@@H](CC(N)=O)C(=O)N[C@H]2C(=O)N[C@H]3C(=O)N[C@H](C(=O)N[C@H](C(=O)O)c4cc(O)cc(O)c4-c4cc3ccc4O)[C@H](O)c3ccc(c(Cl)c3)Oc3cc2cc(c3O[C@@H]2O[C@H](CO)[C@@H](O)[C@H](O)[C@H]2O[C@H]2C[C@](C)(N)[C@H](O)[C@H](C)O2)Oc2ccc(cc2Cl)[C@H]1O [Vancomycin, vancomycin]?
A: MIC ([9]; 24 h): 3 µM (≈ 4.35 µg/mL); MIC ([9]; 48 h): 3 µM (≈ 4.35 µg/mL); MIC ([10]; 24 h): 4 µM (≈ 5.8 µg/mL); MIC ([10]; 48 h): 4 µM (≈ 5.8 µg/mL); MIC ([11]; 24 h): 1 µM (≈ 1.45 µg/mL); MIC ([11]; 48 h): 1 µM (≈ 1.45 µg/mL); MIC ([3]; 24 h): 0.3 µM (≈ 0.435 µg/mL); MIC ([3]; 48 h): 0.3 µM (≈ 0.435 µg/mL); MIC ([12]; 24 h): 0.5 µM (≈ 0.725 µg/mL); MIC ([12]; 48 h): 1 µM (≈ 1.45 µg/mL)

Q: With CC/C(=C(\c1ccc(O)cc1)c1ccc(OCCN(C)C)cc1)c1ccccc1 [compound 12, E/Z-4-Hydroxytamoxifen, reference compound] as the compound, how does the IC50 (MCF-7 cells) read?
A: The IC50 was 0.3 µM.

Q: And the IC50 (MCF-7/Adr cells)?
A: Its IC50 is 20 to 40 µM.

Q: What about the IC50 (MDA-MB-231) of the same compound?
A: The IC50 was 20 to 40 µM.

Q: And the IC50 (MDA-MB-435)?
A: Its IC50 is 20 to 40 µM.

Q: What does the source list for COc1cccc2c1C(=O)c1c(O)c3c(c(O)c1C2=O)C[C@@](O)(C(=O)CO)C[C@@H]3OC1CC2C(OCN2CN2COC3C(C)OC(O[C@H]4C[C@](O)(C(=O)CO)Cc5c(O)c6c(c(O)c54)C(=O)c4c(OC)cccc4C6=O)CC32)C(C)O1 (stereo partly drawn) [doxoform]?
A: tolerance by mice [13]: poorly tolerated; times as potent as doxorubicin (MCF-7): 250 times; times as potent as doxorubicin (MCF-7/ADR): 10,000 times

Q: Which tolerance by mice [13] does the source give for COc1cccc2c1C(=O)c1c(O)c3c(c(O)c1C2=O)C[C@@](O)(C(=O)CO)C[C@@H]3O[C@H]1C[C@H]2C(OCN3CN2CO[C@H]2[C@@H](C)O[C@@H](O[C@H]4C[C@](O)(C(=O)CO)Cc5c(O)c6c(c(O)c54)C(=O)c4c(OC)cccc4C6=O)C[C@@H]23)[C@H](C)O1 (stereo partly drawn) [epidoxoform] here?
A: The tolerance by mice was “well tolerated”.

Q: And the efficacy in mice ([13]; relative to doxorubicin)?
A: The efficacy in mice was “improved efficacy in mice, relative to doxorubicin”.

Q: What about the half-life [14] of the same compound?
A: Its half-life is 2 h.

Q: Which IC50 [8] does the source give for O=c1c(-c2ccc(O)cc2)coc2cc(O)cc(O)c12 [genistein] here?
A: Its IC50 is 120 µM.

Q: And the antitumor activity [15]?
A: The antitumor activity was 120 µM.

Q: What about the “increase in tumor size” value [16] of the same compound?
A: Its value is over 200%.

Q: With “(KLAKKLA)2: antimicrobial peptide (KLAKKLA)2 SEQ ID NO: 3 (microbe homing peptide)” as the compound, how does the “sub-lethal concentration (lysis)” value (3T3 mouse fibroblasts) read?
A: Its value is over 272 µM.

Q: What about the “MIC (bacterial lysis)” value (P. aeruginosa ATCC 27853) of the same compound?
A: The value was 3 µM.

Q: And the “MIC (bacterial lysis)” value (S. aureus ATCC 25723)?
A: The value was 6 µM.

Q: And the “MIC (bacterial lysis)” value (E. coli ATCC 25922)?
A: Its value is 6 µM.

Q: And the “sub-lethal concentration (lysis)” value (Human erythrocytes)?
A: Its value is over 750 µM.

Q: For “RGD-4C: peptide CDCRGDCFC; at b346 the form with disulfide bridges [reference compound]”, which water solubility [17] is on record?
A: The water solubility was “poorly water soluble over a range of pH”.
